# Laboratory results reported in the kinase profiling compilation of Christmann-Franck et al. (2016).
# Key:
# Experiment in all cases: Caliper, Mobility shift assay off-chip
# TSSK2 (human) = TSSK2 (human) (UniProt Q96PF2)
# DYRK2 (human) = DYRK2 (human) (UniProt Q92630)
# DDR2 (human) = DDR2 (human) (UniProt Q16832)
# MAP2K6 (human) = MAP2K6 (human) (UniProt P52564)
# FRK (human) = FRK (human) (UniProt P42685)
# STK10 (human) = STK10 (human) (UniProt O94804)
# VRK2 (human) = VRK2 (human) (UniProt Q86Y07)
# MYLK3 (human) = MYLK3 (human) (UniProt Q32MK0)
# DAPK2 (human) = DAPK2 (human) (UniProt Q9UIK4)
# [1] = test system: FLT3 (human), P36888 [D835Y]
# CAMK1D (human) = CAMK1D (human) (UniProt Q8IU85)
# RET (human) = RET (human) (UniProt P07949)
# CSNK1G2 (human) = CSNK1G2 (human) (UniProt P78368)
# CHUK (human) = CHUK (human) (UniProt O15111)
# STK24 (human) = STK24 (human) (UniProt Q9Y6E0)
# Chain of STK24 (human) (Q9Y6E0 whole entry, looked up): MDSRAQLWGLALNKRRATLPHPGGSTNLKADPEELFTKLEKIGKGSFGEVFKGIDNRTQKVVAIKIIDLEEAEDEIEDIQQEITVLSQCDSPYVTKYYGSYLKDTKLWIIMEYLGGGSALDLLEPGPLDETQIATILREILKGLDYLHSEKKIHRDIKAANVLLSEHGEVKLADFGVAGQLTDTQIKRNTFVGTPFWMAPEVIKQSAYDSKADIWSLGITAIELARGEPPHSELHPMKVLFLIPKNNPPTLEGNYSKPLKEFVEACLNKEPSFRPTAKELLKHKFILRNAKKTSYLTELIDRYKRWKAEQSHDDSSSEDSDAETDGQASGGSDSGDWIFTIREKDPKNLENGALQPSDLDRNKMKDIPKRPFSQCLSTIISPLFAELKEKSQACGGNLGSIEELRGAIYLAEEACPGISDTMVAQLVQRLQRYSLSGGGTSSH
# JAK3 JH1 JH2 (human) = JAK3 JH1 JH2 (human) (UniProt P52333)
# SYK (human) = SYK (human) (UniProt P43405)
# INSR (human) = INSR (human) (UniProt P06213)
# MAPK1 (human) = MAPK1 (human) (UniProt P28482)
# Chain of MAPK1 (human) (P28482 whole entry, looked up): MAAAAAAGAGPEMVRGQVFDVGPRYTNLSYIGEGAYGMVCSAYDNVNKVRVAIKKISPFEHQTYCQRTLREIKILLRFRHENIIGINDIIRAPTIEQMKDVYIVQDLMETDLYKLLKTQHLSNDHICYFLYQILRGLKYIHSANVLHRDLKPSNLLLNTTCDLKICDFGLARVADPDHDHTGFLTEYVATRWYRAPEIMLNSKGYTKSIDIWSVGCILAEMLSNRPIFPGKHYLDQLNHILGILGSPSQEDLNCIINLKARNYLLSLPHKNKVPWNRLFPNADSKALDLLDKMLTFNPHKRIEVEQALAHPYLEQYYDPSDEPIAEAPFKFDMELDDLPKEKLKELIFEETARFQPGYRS
# CDK6 CCND3 (human) = CDK6 CCND3 (human) (UniProt Q00534+P30281)
# PAK6 (human) = PAK6 (human) (UniProt Q9NQU5)
# Chain of PAK6 (human) (Q9NQU5 whole entry, looked up): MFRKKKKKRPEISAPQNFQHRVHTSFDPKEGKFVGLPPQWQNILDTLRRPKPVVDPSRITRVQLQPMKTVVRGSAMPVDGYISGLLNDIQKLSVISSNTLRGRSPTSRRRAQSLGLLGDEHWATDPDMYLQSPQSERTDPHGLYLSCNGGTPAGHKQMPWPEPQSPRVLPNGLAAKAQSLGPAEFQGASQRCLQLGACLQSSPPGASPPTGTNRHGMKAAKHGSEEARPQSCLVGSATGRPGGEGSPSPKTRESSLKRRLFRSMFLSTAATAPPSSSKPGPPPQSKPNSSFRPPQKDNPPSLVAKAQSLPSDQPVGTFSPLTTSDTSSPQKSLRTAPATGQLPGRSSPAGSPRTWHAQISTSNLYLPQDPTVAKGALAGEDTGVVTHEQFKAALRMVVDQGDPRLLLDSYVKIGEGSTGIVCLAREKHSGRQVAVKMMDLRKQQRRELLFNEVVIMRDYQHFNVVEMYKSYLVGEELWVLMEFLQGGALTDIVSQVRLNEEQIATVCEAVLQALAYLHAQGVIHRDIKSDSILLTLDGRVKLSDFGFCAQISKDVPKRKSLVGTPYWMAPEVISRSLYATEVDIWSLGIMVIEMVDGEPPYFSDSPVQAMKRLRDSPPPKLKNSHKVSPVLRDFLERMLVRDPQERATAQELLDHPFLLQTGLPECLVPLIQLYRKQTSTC
# FYN (human) = FYN (human) (UniProt P06241)
# Chain of FYN (human) (P06241 whole entry, looked up): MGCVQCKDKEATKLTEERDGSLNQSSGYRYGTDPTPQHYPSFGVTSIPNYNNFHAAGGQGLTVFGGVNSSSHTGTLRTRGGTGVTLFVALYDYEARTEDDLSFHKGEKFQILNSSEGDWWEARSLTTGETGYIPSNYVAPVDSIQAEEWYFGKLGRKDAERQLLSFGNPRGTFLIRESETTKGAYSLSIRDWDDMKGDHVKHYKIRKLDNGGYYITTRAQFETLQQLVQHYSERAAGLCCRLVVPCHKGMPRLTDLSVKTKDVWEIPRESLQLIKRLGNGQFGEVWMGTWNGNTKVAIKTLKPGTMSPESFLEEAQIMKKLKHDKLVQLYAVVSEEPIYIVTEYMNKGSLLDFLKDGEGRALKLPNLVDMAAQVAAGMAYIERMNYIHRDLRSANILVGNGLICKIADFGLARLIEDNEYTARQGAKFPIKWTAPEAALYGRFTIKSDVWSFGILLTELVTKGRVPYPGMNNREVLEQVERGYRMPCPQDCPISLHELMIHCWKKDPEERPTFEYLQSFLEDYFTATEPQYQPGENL
# GCK (human) = GCK (human) (UniProt Q12851)
# GSG2 (human) = GSG2 (human) (UniProt Q8TF76)
# [2] = test system: KIT (human), P10721 [V654A]
# CAMK4 (human) = CAMK4 (human) (UniProt Q16566)
# [3] = test system: ABL1 (human), P00519 [T315I]
# CHEK2 (human) = CHEK2 (human) (UniProt O96017)
# RPS6KA3 KD1 KD2 (human) = RPS6KA3 KD1 KD2 (human) (UniProt P51812)
# HIPK2 (human) = HIPK2 (human) (UniProt Q9H2X6)
# [4] = test system: EGFR (human), P00533 [T790M/L858R]
# MST1R (human) = MST1R (human) (UniProt Q04912)
# MELK (human) = MELK (human) (UniProt Q14680)
# GRK5 (human) = GRK5 (human) (UniProt P34947)
# TAOK2 (human) = TAOK2 (human) (UniProt Q9UL54)
# PAK7 (human) = PAK7 (human) (UniProt Q9P286)
# BMX (human) = BMX (human) (UniProt P51813)
# Chain of BMX (human) (P51813 whole entry, looked up): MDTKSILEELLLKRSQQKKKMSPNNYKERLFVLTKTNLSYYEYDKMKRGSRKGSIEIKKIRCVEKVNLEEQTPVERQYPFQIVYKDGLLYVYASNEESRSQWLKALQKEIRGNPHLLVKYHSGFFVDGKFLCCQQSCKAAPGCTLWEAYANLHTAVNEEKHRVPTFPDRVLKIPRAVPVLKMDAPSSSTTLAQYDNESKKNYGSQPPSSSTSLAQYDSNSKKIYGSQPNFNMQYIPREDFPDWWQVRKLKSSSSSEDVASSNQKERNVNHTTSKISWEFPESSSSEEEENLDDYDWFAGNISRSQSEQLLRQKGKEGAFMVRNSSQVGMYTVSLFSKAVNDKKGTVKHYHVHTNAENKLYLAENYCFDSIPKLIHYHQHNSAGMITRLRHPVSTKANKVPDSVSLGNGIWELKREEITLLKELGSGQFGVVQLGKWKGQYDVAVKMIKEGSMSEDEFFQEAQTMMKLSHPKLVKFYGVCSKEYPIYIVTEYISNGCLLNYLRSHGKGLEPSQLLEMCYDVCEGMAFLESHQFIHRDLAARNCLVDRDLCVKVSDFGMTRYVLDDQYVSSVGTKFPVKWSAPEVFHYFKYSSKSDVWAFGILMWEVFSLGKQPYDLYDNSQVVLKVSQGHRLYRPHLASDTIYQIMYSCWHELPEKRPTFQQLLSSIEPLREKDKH
# CSNK1G3 (human) = CSNK1G3 (human) (UniProt Q9Y6M4)
# Chain of CSNK1G3 (human) (Q9Y6M4 whole entry, looked up): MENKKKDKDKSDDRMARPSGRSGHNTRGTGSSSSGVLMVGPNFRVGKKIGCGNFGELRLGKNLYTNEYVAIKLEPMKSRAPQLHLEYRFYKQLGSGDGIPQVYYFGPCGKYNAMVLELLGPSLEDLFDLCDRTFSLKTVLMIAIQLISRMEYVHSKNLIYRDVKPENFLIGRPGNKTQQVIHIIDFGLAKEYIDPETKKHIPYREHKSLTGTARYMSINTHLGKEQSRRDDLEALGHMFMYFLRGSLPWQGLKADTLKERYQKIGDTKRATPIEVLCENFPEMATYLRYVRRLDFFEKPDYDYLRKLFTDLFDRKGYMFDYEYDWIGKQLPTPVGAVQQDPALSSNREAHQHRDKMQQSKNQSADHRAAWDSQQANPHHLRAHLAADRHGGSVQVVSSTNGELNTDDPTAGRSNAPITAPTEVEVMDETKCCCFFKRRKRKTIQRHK
# MKNK2 (human) = MKNK2 (human) (UniProt Q9HBH9)
# TLK2 (human) = TLK2 (human) (UniProt Q86UE8)
# PAK3 (human) = PAK3 (human) (UniProt O75914)
# Chain of DDR2 (human) (Q16832 whole entry, looked up): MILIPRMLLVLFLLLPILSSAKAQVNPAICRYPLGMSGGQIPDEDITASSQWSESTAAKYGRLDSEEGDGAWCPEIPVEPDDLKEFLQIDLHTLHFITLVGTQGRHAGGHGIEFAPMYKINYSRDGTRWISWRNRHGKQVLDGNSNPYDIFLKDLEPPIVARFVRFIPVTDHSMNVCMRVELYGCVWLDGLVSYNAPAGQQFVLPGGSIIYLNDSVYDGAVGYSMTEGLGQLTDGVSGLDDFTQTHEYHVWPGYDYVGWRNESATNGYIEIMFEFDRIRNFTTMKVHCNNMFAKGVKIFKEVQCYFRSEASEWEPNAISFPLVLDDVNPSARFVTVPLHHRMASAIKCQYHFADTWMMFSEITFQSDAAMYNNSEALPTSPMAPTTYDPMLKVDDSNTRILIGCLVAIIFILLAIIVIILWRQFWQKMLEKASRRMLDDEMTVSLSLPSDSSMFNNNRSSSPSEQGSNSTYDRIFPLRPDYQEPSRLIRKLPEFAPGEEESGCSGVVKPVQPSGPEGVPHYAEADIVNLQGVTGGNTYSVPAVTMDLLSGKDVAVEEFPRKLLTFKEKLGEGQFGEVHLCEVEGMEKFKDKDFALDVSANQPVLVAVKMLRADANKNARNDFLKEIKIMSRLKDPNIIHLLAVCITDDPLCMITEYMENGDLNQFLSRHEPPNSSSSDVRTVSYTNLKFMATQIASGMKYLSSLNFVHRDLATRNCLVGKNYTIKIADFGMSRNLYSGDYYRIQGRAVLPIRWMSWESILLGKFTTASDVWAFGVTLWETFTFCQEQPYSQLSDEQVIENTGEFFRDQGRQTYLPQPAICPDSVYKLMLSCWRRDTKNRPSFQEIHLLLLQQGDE
# Chain of MAP2K6 (human) (P52564 whole entry, looked up): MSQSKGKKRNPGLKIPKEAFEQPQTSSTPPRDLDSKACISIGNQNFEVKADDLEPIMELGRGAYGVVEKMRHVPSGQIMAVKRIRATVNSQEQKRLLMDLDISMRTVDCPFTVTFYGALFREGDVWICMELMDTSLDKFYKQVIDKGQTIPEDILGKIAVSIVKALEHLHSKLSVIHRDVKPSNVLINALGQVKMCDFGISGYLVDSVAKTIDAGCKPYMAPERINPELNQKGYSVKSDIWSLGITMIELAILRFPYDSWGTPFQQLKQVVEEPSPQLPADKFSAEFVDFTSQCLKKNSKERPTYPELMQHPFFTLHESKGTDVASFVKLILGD
# Chain of FRK (human) (P42685 whole entry, looked up): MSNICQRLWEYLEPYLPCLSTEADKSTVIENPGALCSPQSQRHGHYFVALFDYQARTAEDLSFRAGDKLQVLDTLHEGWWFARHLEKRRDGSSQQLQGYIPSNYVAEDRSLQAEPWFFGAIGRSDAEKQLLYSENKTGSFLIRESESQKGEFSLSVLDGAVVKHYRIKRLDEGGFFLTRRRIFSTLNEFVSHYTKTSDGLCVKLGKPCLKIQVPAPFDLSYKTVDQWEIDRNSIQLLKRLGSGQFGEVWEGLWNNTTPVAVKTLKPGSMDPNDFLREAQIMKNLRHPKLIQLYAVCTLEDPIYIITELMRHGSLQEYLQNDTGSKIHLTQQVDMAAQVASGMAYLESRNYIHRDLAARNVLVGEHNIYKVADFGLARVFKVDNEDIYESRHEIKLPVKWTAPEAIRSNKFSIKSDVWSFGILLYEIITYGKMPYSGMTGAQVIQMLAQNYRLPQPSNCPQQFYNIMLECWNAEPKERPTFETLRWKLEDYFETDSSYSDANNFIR
structure (smiles),measurement,setting,value
O=C(N[C@@H](COc1ccc2[nH]c(=O)[nH]c2c1)c1ccccc1)c1cccn(Cc2ccc(F)c(F)c2)c1=O,residual activity,TSSK2 (human); compound 10.0 µM,115%
same,residual activity,DYRK2 (human); compound 10.0 µM,101%
same,residual activity,DDR2 (human); compound 10.0 µM,118%
same,residual activity,MAP2K6 (human); compound 10.0 µM,115%
same,residual activity,FRK (human); compound 10.0 µM,96%
same,residual activity,STK10 (human); compound 10.0 µM,113%
same,residual activity,VRK2 (human); compound 10.0 µM,99%
same,residual activity,MYLK3 (human); compound 10.0 µM,110%
same,residual activity,DAPK2 (human); compound 10.0 µM,94%
same,residual activity,[1]; compound 10.0 µM,99%
same,residual activity,CAMK1D (human); compound 10.0 µM,95%
same,residual activity,RET (human); compound 10.0 µM,100%
same,residual activity,CSNK1G2 (human); compound 10.0 µM,97%
same,residual activity,CHUK (human); compound 10.0 µM,125%
same,residual activity,STK24 (human); compound 10.0 µM,100%
same,residual activity,JAK3 JH1 JH2 (human); compound 10.0 µM,98%
same,residual activity,SYK (human); compound 10.0 µM,102%
same,residual activity,INSR (human); compound 10.0 µM,98%
same,residual activity,MAPK1 (human); compound 10.0 µM,89%
same,residual activity,CDK6 CCND3 (human); compound 10.0 µM,102%
same,residual activity,PAK6 (human); compound 10.0 µM,101%
same,residual activity,FYN (human); compound 10.0 µM,89%
same,residual activity,GCK (human); compound 10.0 µM,107%
same,residual activity,GSG2 (human); compound 10.0 µM,74%
same,residual activity,[2]; compound 10.0 µM,102%
same,residual activity,CAMK4 (human); compound 10.0 µM,96%
same,residual activity,[3]; compound 10.0 µM,91%
same,residual activity,CHEK2 (human); compound 10.0 µM,132%
same,residual activity,RPS6KA3 KD1 KD2 (human); compound 10.0 µM,124%
same,residual activity,HIPK2 (human); compound 10.0 µM,107%
same,residual activity,[4]; compound 10.0 µM,99%
same,residual activity,MST1R (human); compound 10.0 µM,82%
same,residual activity,MELK (human); compound 10.0 µM,104%
same,residual activity,GRK5 (human); compound 10.0 µM,69%
same,residual activity,TAOK2 (human); compound 10.0 µM,98%
same,residual activity,PAK7 (human); compound 10.0 µM,100%
same,residual activity,BMX (human); compound 10.0 µM,139%
same,residual activity,CSNK1G3 (human); compound 10.0 µM,99%
same,residual activity,MKNK2 (human); compound 10.0 µM,101%
same,residual activity,TLK2 (human); compound 10.0 µM,100%
same,residual activity,PAK3 (human); compound 10.0 µM,88%
C[C@@H](Nc1nc2c(C#CC3CC3)c[nH]c(=O)c2c2cc(-c3cn[nH]c3)ccc12)C(C)(C)C,residual activity,TSSK2 (human); compound 1.0 µM,106%
same,residual activity,DYRK2 (human); compound 1.0 µM,102%
same,residual activity,DDR2 (human); compound 1.0 µM,101%
same,residual activity,MAP2K6 (human); compound 1.0 µM,106%
same,residual activity,FRK (human); compound 1.0 µM,92%
same,residual activity,STK10 (human); compound 1.0 µM,25%
same,residual activity,VRK2 (human); compound 1.0 µM,111%
same,residual activity,MYLK3 (human); compound 1.0 µM,53%
same,residual activity,DAPK2 (human); compound 1.0 µM,36%
same,residual activity,[1]; compound 1.0 µM,9%
same,residual activity,CAMK1D (human); compound 1.0 µM,55%
same,residual activity,RET (human); compound 1.0 µM,1%
same,residual activity,CSNK1G2 (human); compound 1.0 µM,101%
same,residual activity,CHUK (human); compound 1.0 µM,102%
same,residual activity,STK24 (human); compound 1.0 µM,125%
same,residual activity,JAK3 JH1 JH2 (human); compound 1.0 µM,56%
same,residual activity,SYK (human); compound 1.0 µM,105%
same,residual activity,INSR (human); compound 1.0 µM,107%
same,residual activity,MAPK1 (human); compound 1.0 µM,99%
same,residual activity,CDK6 CCND3 (human); compound 1.0 µM,102%
same,residual activity,PAK6 (human); compound 1.0 µM,103%
same,residual activity,FYN (human); compound 1.0 µM,79%
same,residual activity,GCK (human); compound 1.0 µM,44%
same,residual activity,GSG2 (human); compound 1.0 µM,158%
same,residual activity,[2]; compound 1.0 µM,46%
same,residual activity,CAMK4 (human); compound 1.0 µM,22%
same,residual activity,[3]; compound 1.0 µM,88%
same,residual activity,CHEK2 (human); compound 1.0 µM,4%
same,residual activity,RPS6KA3 KD1 KD2 (human); compound 1.0 µM,5%
same,residual activity,HIPK2 (human); compound 1.0 µM,104%
same,residual activity,[4]; compound 1.0 µM,12%
same,residual activity,MST1R (human); compound 1.0 µM,98%
same,residual activity,MELK (human); compound 1.0 µM,67%
same,residual activity,GRK5 (human); compound 1.0 µM,122%
same,residual activity,TAOK2 (human); compound 1.0 µM,101%
same,residual activity,PAK7 (human); compound 1.0 µM,103%
same,residual activity,BMX (human); compound 1.0 µM,89%
same,residual activity,CSNK1G3 (human); compound 1.0 µM,113%
same,residual activity,MKNK2 (human); compound 1.0 µM,30%
same,residual activity,TLK2 (human); compound 1.0 µM,80%
same,residual activity,PAK3 (human); compound 1.0 µM,78%
